According to patent US20170066795A1, “SOLID PRODRUG FORMS OF 2'-CHLORO-2'-METHYL URIDINE FOR HCV” (IDENIX PHARMACEUTICALS LLC, priority 2014, published 2017):

How the values were obtained:
Genotype 1 HCV = assay: Example 3 Part I: Compound I QD x 7 days in treatment-naïve Genotype 1 HCV-infected subjects, viral load (HCV RNA); type: in vivo; conditions: 300 mg/day for 7 days
Description: This part was a randomized, double-blind, placebo-controlled, parallel group study in treatment-naïve, Genotype 1 HCV-infected subjects. Thirty (30) subjects were randomized across the treatment arms specified below.
(§1) Dosing, sampling, and analyses for Parts I and II were made according to Tables A and B.
(§2) Compound I was provided as size 0, white, hard hydroxypropyl methylcellulose (HPMC) capsules for oral administration at 5 mg, 25 mg and 50 mg strengths. The same powder blend containing 33.3% weight/weight (w/w) Compound I, a diluent, and a disintegrant is used to fill the capsules for all dose strengths. Matching placebo capsules will also be provided. Storage conditions will be provided on the study drug container label.
(§3) Dosing occurred between approximately 08:00 AM and 10:00 AM on each dosing day. Water was permitted ad libitum except for 1 hour before and after dosing. Dosing was immediately followed by administration of 240 mL (8 oz.) of water. Meals and beverages served within 24 hours prior to and post dosing were xanthine-free and caffeine-free. Grapefruit and grapefruit juice were not allowed within 7 days before reporting to the clinic on Day −1 and through the end of the study.

genotype 2 or 3 HCV = assay: Example 3 Part II: Compound I QD x 7 days in treatment-naïve Genotype 2, 3, 4, 5 and 6 HCV-infected subjects, viral load (HCV RNA); type: in vivo; conditions: 300 mg/day for 7 days
Description: This part were a randomized, open-label, parallel group study in treatment-naïve, Genotype 2, 3, 4, 5 and 6 HCV-infected subjects. Thirty (30) subjects were randomized across the treatment arms specified below.
as §1, §2, §3

[1] = Example 4 Group B: safety (adverse events) in genotype 1 HCV-infected subjects; type: in vivo, human
Description: Five sequential cohorts of 3 HCV-infected subjects (HCV) per cohort received under fasted conditions open-label Compound I at single ascending doses of 10, 25, 50, 150, and 300 mg (below, “Group B”).
For Groups A and B, dosing occurred between approximately 08:00 AM and 10:00 AM on each dosing day. Dosing was fasted for all subjects in Groups A and B. For fasted dosing, subjects observed a fasting period of approximately 10 hours prior to each dose and for an additional 4 hours post-dose.
Safety measurements included clinical history, routine laboratory evaluation, physical examination, 12-lead ECG, vital signs, adverse event (AE) assessment.

CC(C)OC(=O)[C@@H](C)N[P@@](=O)(OC[C@H]1O[C@@H](n2ccc(=O)[nH]c2=O)[C@](C)(Cl)[C@@H]1O)Oc1ccccc1 [Compound I]
response in genotype 1a versus genotype 1b HCV infection (Genotype 1 HCV): similar
mean maximal viral load reduction (Genotype 1 HCV; 8 genotype 1 HCV-infected patients): 4.2 logs
response in genotype 2 versus genotype 3 HCV infection (genotype 2 or 3 HCV): similar
mean maximal viral load reduction (genotype 2 or 3 HCV; 10 genotype 2 or 3 HCV-infected patients): 4.3 logs
Adverse event: Constipation ([1]; 10 mg single dose (n = 3)): 0 n, %
Adverse event: Diarrhea ([1]; 10 mg single dose (n = 3)): 0 n, %
Adverse event: Dry mouth ([1]; 10 mg single dose (n = 3)): 0 n, %
Adverse event: Dry skin ([1]; 10 mg single dose (n = 3)): 0 n, %
Adverse event: Dysuria ([1]; 10 mg single dose (n = 3)): 0 n, %
Adverse event: Fatigue ([1]; 10 mg single dose (n = 3)): 0 n, %
Adverse event: Feces hard ([1]; 10 mg single dose (n = 3)): 0 n, %
Adverse event: Flatulence ([1]; 10 mg single dose (n = 3)): 0 n, %
Adverse event: Headache ([1]; 10 mg single dose (n = 3)): 0 n, %
Adverse event: Myalgia ([1]; 10 mg single dose (n = 3)): 1 (33.3) n, %
Adverse event: Neck pain ([1]; 10 mg single dose (n = 3)): 0 n, %
Adverse event: Pruritus ([1]; 10 mg single dose (n = 3)): 0 n, %
Adverse event: Pruritus generalized ([1]; 10 mg single dose (n = 3)): 0 n, %
Adverse event: Vessel puncture site bruise ([1]; 10 mg single dose (n = 3)): 0 n, %
Subjects with AE ([1]; 10 mg single dose (n = 3)): 1 (33.3) n, %
Adverse event: Constipation ([1]; 25 mg single dose (n = 3)): 1 (33.3) n, %
Adverse event: Diarrhea ([1]; 25 mg single dose (n = 3)): 0 n, %
Adverse event: Dry mouth ([1]; 25 mg single dose (n = 3)): 0 n, %
Adverse event: Dry skin ([1]; 25 mg single dose (n = 3)): 0 n, %
Adverse event: Dysuria ([1]; 25 mg single dose (n = 3)): 0 n, %
Adverse event: Fatigue ([1]; 25 mg single dose (n = 3)): 1 (33.3) n, %
Adverse event: Feces hard ([1]; 25 mg single dose (n = 3)): 0 n, %
Adverse event: Flatulence ([1]; 25 mg single dose (n = 3)): 1 (33.3) n, %
Adverse event: Headache ([1]; 25 mg single dose (n = 3)): 1 (33.3) n, %
Adverse event: Myalgia ([1]; 25 mg single dose (n = 3)): 0 n, %
Adverse event: Neck pain ([1]; 25 mg single dose (n = 3)): 1 (33.3) n, %
Adverse event: Pruritus ([1]; 25 mg single dose (n = 3)): 0 n, %
Adverse event: Pruritus generalized ([1]; 25 mg single dose (n = 3)): 0 n, %
Adverse event: Vessel puncture site bruise ([1]; 25 mg single dose (n = 3)): 0 n, %
Subjects with AE ([1]; 25 mg single dose (n = 3)): 2 (66.7) n, %
Adverse event: Constipation ([1]; 50 mg single dose (n = 3)): 0 n, %
Adverse event: Diarrhea ([1]; 50 mg single dose (n = 3)): 0 n, %
Adverse event: Dry mouth ([1]; 50 mg single dose (n = 3)): 0 n, %
Adverse event: Dry skin ([1]; 50 mg single dose (n = 3)): 0 n, %
Adverse event: Dysuria ([1]; 50 mg single dose (n = 3)): 1 (33.3) n, %
Adverse event: Fatigue ([1]; 50 mg single dose (n = 3)): 0 n, %
Adverse event: Feces hard ([1]; 50 mg single dose (n = 3)): 0 n, %
Adverse event: Flatulence ([1]; 50 mg single dose (n = 3)): 0 n, %
Adverse event: Headache ([1]; 50 mg single dose (n = 3)): 0 n, %
Adverse event: Myalgia ([1]; 50 mg single dose (n = 3)): 0 n, %
Adverse event: Neck pain ([1]; 50 mg single dose (n = 3)): 0 n, %
Adverse event: Pruritus ([1]; 50 mg single dose (n = 3)): 0 n, %
Adverse event: Pruritus generalized ([1]; 50 mg single dose (n = 3)): 0 n, %
Adverse event: Vessel puncture site bruise ([1]; 50 mg single dose (n = 3)): 0 n, %
Subjects with AE ([1]; 50 mg single dose (n = 3)): 1 (33.3) n, %
Adverse event: Constipation ([1]; 150 mg single dose (n = 3)): 0 n, %
Adverse event: Diarrhea ([1]; 150 mg single dose (n = 3)): 0 n, %
Adverse event: Dry mouth ([1]; 150 mg single dose (n = 3)): 1 (33.3) n, %
Adverse event: Dry skin ([1]; 150 mg single dose (n = 3)): 1 (33.3) n, %
Adverse event: Dysuria ([1]; 150 mg single dose (n = 3)): 0 n, %
Adverse event: Fatigue ([1]; 150 mg single dose (n = 3)): 1 (33.3) n, %
Adverse event: Feces hard ([1]; 150 mg single dose (n = 3)): 0 n, %
Adverse event: Flatulence ([1]; 150 mg single dose (n = 3)): 0 n, %
Adverse event: Headache ([1]; 150 mg single dose (n = 3)): 0 n, %
Adverse event: Myalgia ([1]; 150 mg single dose (n = 3)): 0 n, %
Adverse event: Neck pain ([1]; 150 mg single dose (n = 3)): 0 n, %
Adverse event: Pruritus ([1]; 150 mg single dose (n = 3)): 1 (33.3) n, %
Adverse event: Pruritus generalized ([1]; 150 mg single dose (n = 3)): 1 (33.3) n, %
Adverse event: Vessel puncture site bruise ([1]; 150 mg single dose (n = 3)): 0 n, %
Subjects with AE ([1]; 150 mg single dose (n = 3)): 2 (66.7) n, %
Adverse event: Constipation ([1]; 300 mg single dose (n = 3)): 0 n, %
Adverse event: Diarrhea ([1]; 300 mg single dose (n = 3)): 1 (33.3) n, %
Adverse event: Dry mouth ([1]; 300 mg single dose (n = 3)): 0 n, %
Adverse event: Dry skin ([1]; 300 mg single dose (n = 3)): 0 n, %
Adverse event: Dysuria ([1]; 300 mg single dose (n = 3)): 0 n, %
Adverse event: Fatigue ([1]; 300 mg single dose (n = 3)): 0 n, %
Adverse event: Feces hard ([1]; 300 mg single dose (n = 3)): 1 (33.3) n, %
Adverse event: Flatulence ([1]; 300 mg single dose (n = 3)): 0 n, %
Adverse event: Headache ([1]; 300 mg single dose (n = 3)): 0 n, %
Adverse event: Myalgia ([1]; 300 mg single dose (n = 3)): 0 n, %
Adverse event: Neck pain ([1]; 300 mg single dose (n = 3)): 0 n, %
Adverse event: Pruritus ([1]; 300 mg single dose (n = 3)): 0 n, %
Adverse event: Pruritus generalized ([1]; 300 mg single dose (n = 3)): 0 n, %
Adverse event: Vessel puncture site bruise ([1]; 300 mg single dose (n = 3)): 1 (33.3) n, %
Subjects with AE ([1]; 300 mg single dose (n = 3)): 2 (66.7) n, %
